From article PMC5430874 (Scientific Reports, 2017)
Substitutions are numbered along the chain they refer to.

How the values were obtained:
Assay type in all cases: cell-based
GPR139 H187A^5×43 = target: T1, GPR139 H187A^5×43 (Homo sapiens, UniProt Q6DWJ6, H187A); experiment: Fluo-4 Ca2+-assay, GPR139 mutant H187A; details: for EC50: H187A mutant (surface expression 36% of WT)
T1 construct: mGluR5 signal peptide (N); expressed in transfected cells; host or cells: HEK293
T1 sequence (Q6DWJ6 2-353 H187A limits assumed): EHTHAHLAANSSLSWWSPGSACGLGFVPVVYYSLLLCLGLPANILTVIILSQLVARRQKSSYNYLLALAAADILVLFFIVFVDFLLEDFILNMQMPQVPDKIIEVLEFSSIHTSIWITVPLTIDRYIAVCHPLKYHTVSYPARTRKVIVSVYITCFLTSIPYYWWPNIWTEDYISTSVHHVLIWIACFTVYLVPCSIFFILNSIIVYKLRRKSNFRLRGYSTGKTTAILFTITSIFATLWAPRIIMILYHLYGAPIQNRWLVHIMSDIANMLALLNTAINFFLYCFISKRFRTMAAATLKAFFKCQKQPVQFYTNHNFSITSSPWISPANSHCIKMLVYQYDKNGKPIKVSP
Source text: (§1) To study the influence of specific amino acids in the predicted binding pocket on receptor function, the desired mutations were introduced into an N-terminally c-myc-tagged wild type human GPR139 (NM_001002911.3) in the pEGFP-N1 vector (BD Biosciences)[32], [33]. As previously described, these plasmids carry the signal peptide of mGluR5 to promote cell surface expression followed by a c-myc epitope to enable detection of total and surface expression by ELISA, followed by an engineered MluI and NotI site for easy insertion of the receptor of interest. Furthermore, the start-codon in the GPR139 sequence was deleted to ensure c-myc-tagging. Mutagenesis was designed in Serial Cloner 2.6 (© Franck Perez [SerialBasics]) and carried out by GenScript (USA). All mutated residues are illustrated in Supplementary Fig. 1b. An untagged GPR139(WT) in pEGFP-N1 was also generated to ensure that the c-myc-tag had no influence on GPR139(WT) function.
All GPR139 mutants were transfected into HEK293 cells. The HEK293 cells were grown in Dulbecco’s modified Eagle’s medium (DMEM) (Gibco, 41965) supplemented with 10% dialyzed fetal bovine serum (Gibco, 26400, United States origin), 100 units/mL penicillin and 100 μg/mL streptomycin (Gibco, 15140). HEK293 cells were reverse transfected using Lipofectamine2000 (Invitrogen). More specifically two mixtures were made: 1) 10 ng DNA/well + 25 μL Opti-MEM/well and 2) […] Lipofectamine2000/well + 25 μL Opti-MEM/well. The two mixtures were mixed and 50 μL/well was added directly in black 96-well plates with flat clear bottoms for the Fluo-4 Ca^2+-assay (Corning, Falcon, 353219) or in white Opaque 96-well Microplate (PerkinElmer Life, 6005680) for ELISA. 100 μL containing 20,000 cells were added to each well and incubated 48 hours before assays. All plates were coated with poly-D-lysine.
Compound 1a (1a) was kindly provided by H. Lundbeck A/S, Denmark. […]
(§2) The Ca^2+ measurements were preformed using the Fluo-4 NW Calcium Assay Kit (Invitrogen, Molecular Probes, F36206) as previously described. […] Intracellular calcium changes were recorded as indicated on either a NOVOstar (BMG Labtech) at 37 °C with an excitation filter of 485 nm and an emission filters 520 nm or a FlexStation 3 Benchtop Multi-Mode Microplate Reader (Molecular Devices) at 37 °C with an excitation wavelength of 485 nm and emission of 525 nm.
(§3) All pharmacological data have been analyzed by using Prism 6.0 (GraphPad Software Inc., San Diego). […] Changes in potency (pEC50) and span of myc-GPR139(WT) in comparison to untagged GPR139(WT) was statistically analyzed with a paired t-test and significance was accepted at p < 0.05. […]

GPR139 H264A7x31 = target: T2, GPR139 H264A7x31 (Homo sapiens, UniProt Q6DWJ6, H264A); experiment: Fluo-4 Ca2+-assay, GPR139 mutant H264A
T2 construct: mGluR5 signal peptide (N); expressed in transfected cells; host or cells: HEK293
T2 sequence (Q6DWJ6 2-353 H264A limits assumed): T1 sequence (Q6DWJ6 2-353 H187A limits assumed) with A186H, H263A
Source text: as §1, with “Mutagenesis was designed in Serial Cloner 2.6 (© Franck Perez [SerialBasics]) and carried out by GenScript (USA). All mutated residues are illustrated in Supplementary Fig. 1b. An untagged GPR139(WT) in pEGFP-N1 was also generated to ensure that the c-myc-tag had no influence on GPR139(WT) function.” left out
as §2, §3

GPR139 H251A6x58 = target: T3, GPR139 H251A6x58 (Homo sapiens, UniProt Q6DWJ6, H251A); experiment: Fluo-4 Ca2+-assay, GPR139 mutant H251A
T3 construct: mGluR5 signal peptide (N); expressed in transfected cells; host or cells: HEK293
T3 sequence (Q6DWJ6 2-353 H251A limits assumed): T1 sequence (Q6DWJ6 2-353 H187A limits assumed) with A186H, H250A
Source text: as §1, with “Mutagenesis was designed in Serial Cloner 2.6 (© Franck Perez [SerialBasics]) and carried out by GenScript (USA). All mutated residues are illustrated in Supplementary Fig. 1b. An untagged GPR139(WT) in pEGFP-N1 was also generated to ensure that the c-myc-tag had no influence on GPR139(WT) function.” left out
as §2, §3

| SMILES | Emax (GPR139 H187A^5×43) [%] | EC50 (GPR139 H187A^5×43) [nM] | EC50 (GPR139 H264A7x31; H264A mutant) [nM] | Emax (GPR139 H264A7x31; H264A, normalized to buffer (0%) and 8 µM 1a (100%)) [%] | Emax at 8 µM (GPR139 H187A^5×43; H187A, at 8 μM, normalized to buffer (0%) and 8 μM 1a (100%) on WT) [%] | EC50 (GPR139 H251A6x58; H251A mutant) [nM] | Emax (GPR139 H251A6x58; H251A, normalized to buffer (0%) and 8 µM 1a (100%)) [%] |
| --- | --- | --- | --- | --- | --- | --- | --- |
| C[C@@H](NC(=O)CNC(=O)c1cccc(Cl)c1)c1ccccc1 (racemic) [Compound 7c] | 60 ± 9 | 6610 |  |  |  |  |  |
| COc1cc(OC)cc(C(=O)NNC(=O)Nc2cccc3ccccc23)c1 [Compound 1a] |  | > 7940 | 251 | 148 ± 15 | 35 ± 5 | 813 | 84 ± 11 |
